Values quoted from earlier work as cited in patent US20050020601A1, “Novel pyrazinones as CRF1 receptor antagonists” (Pfizer Inc, priority 2003, published 2005).

Legend:
[1] = tested on: cultured human epidermal keratinocyte cells
rats = details: for effect on the "anxiogenic" effects/actions of CRF: conflict test

Structure (SMILES) | keratinocyte cell proliferation [1] | effect on the "anxiogenic" effects/actions of CRF (rats) | behavioral activity alone (rats; operant conflict test, compound alone)
CCN(c1nc(C)cc(N2CC=C(c3cccc(F)c3)CC2)n1)c1ccc(C(C)C)cc1SC [2-[N-(2-methylthio-4-isopropylphenyl)-N-ethylamino]-4-[4-(3-fluorophenyl)-1,2,3,6-tetrahydropyridine-1-yl]-6-methylpyrimidine] | keratinocyte cell proliferation promoting effect | – | –
CNC(=O)c1cc2c(cn1)[nH]c1ccccc12 [FG 7142] | – | enhanced the actions of CRF | –
CCOC(=O)c1ncn2c1CN(C)C(=O)c1cc(F)ccc1-2 [Ro 15-1788] | – | reversed the effects of CRF in a dose-dependent manner | without behavioral activity alone
